The source of these data is patent publication US9493461B2, “Tetracyclic heterocycle compounds and methods of use thereof for the treatment of hepatitis C” (priority 2013, dated 2016).

Structures are written as SMILES.

For experiment [1], the system named is HCV replicon genotype 1a. The experiment in a line: HCV replicon assay, genotype 1a (cell ELISA for replicon-encoded NS3/4A). Particulars: Hepatitis C virus, 96 h, read-out: 1a IC50 (nM), genotype 1a replicon cells, 96 hours incubation, NS3/4A ELISA readout, % of DMSO control. The format is cell-based, hepatitis C virus (HCV). The method, then:
Measurement of inhibition by compounds was performed using the HCV replicon system. Several different replicons encoding different HCV genotypes or mutations were used. In addition, potency measurements were made using different formats of the replicon assay, including different ways of measurements and different plating formats. See Jan M. Vrolijk et al., A replicons-based bioassay for the measurement of interferons in patients with chronic hepatitis C, 110 J. V[…] 201 (2003); Steven S. Carroll et al., Inhibition of Hepatitis C Virus RNA Replication by 2′-Modified Nucleoside Analogs, 278(14) J. BIOLOGICAL CHEMISTRY 11979 (2003). However, the underlying principles are common to all of these determinations, and are outlined below.
(§1) Stable neomycin phosphotransferase encoding replicons-harboring cell lines were used, so all cell lines were maintained under G418 selection prior to the assay. Potency was determined using a cell ELISA assay with an antibody to the replicons encoded NS3/4a protease. See Caterina Trozzi et al., In Vitro Selection and Characterization of Hepatitis C Virus Serine Protease Variants Resistant to an Active-Site Peptide Inhibitor, 77(6) J. Virol. 3669 (2003). To initiate an assay, replicon cells were plated in the presence of a dilution series of test compound in the absence of G418. Typically, the assays were performed in a 96-well plate formate for manual operation, or a 384-well plate format for automated assay. Replicon cells and compound were incubated for 96 hours. At the end of the assay, cells were washed free of media and compound, and the cells were then lysed. RNA was quantified indirectly through detection of replicon-encoded NS3/4A protein levels, through an ELISA-based assay with an antibody specific for NS3/4A. IC50 determinations were calculated as a percentage of a DMSO control by fitting the data to a four-parameter fit function and the data obtained is provided in the table below.
(§2) Data for selected compounds of the present invention was obtained for genotypes 1a and 1b using this method and is provided in the table below: […]
(In general: A replicon is a self-replicating genome or part of one, used to study replication in cells.)

The subject of experiment [2] is HCV replicon genotype 1b. The experiment in a line: HCV replicon assay, genotype 1b (cell ELISA for replicon-encoded NS3/4A). The format is cell-based, hepatitis C virus (HCV). As to conditions: Hepatitis C virus, 96 h, read-out: 1b IC50 (nM), genotype 1b replicon cells, 96 hours incubation, NS3/4A ELISA readout, % of DMSO control. The method, then: The HCV NS5B inhibitory activity of the present compounds may be tested using assays known in the art. The HCV NS5B polymerase inhibitors described herein have activities in a genotype 1b replicon assay as described in the Examples. The assay is performed by incubating a replicon harboring cell-line in the presence of inhibitor for a set period of time and measuring the effect of the inhibitor on HCV replicon replication either directly by quantifying replicon RNA level, or indirectly by measuring enzymatic activity of a co-encoded reporter enzyme such as luciferase or β-lactamase. By performing a series of such measurements at different inhibitor concentrations, the effective inhibitory concentration of the inhibitor (EC50 or EC90) is determined See Jan M. Vrolijk et al., A replicons-based bioassay for the measurement of interferons in patients with chronic hepatitis C, 110 J. VIROLOGICAL METHODS 201 (2003). Such assays may also be run in an automated format for high through-put screening. See Paul Zuck et al., A cell-based β-lactamase reporter gene assay for the identification of inhibitors of hepatitis C virus replication, 334 ANALYTICAL BIOCHEMISTRY 344 (2004).
Measurement of inhibition by compounds was performed using the HCV replicon system. Several different replicons encoding different HCV genotypes or mutations were used. In addition, potency measurements were made using different formats of the replicon assay, including different ways of measurements and different plating formats. See Jan M. Vrolijk et al., A replicons-based bioassay for the measurement of interferons in patients with chronic hepatitis C, 110 J. VIROLOGICAL METHODS 201 (2003); Steven S. Carroll et al., Inhibition of Hepatitis C Virus RNA Replication by 2′-Modified Nucleoside Analogs, 278(14) J. BIOLOGICAL CHEMISTRY 11979 (2003). However, the underlying principles are common to all of these determinations, and are outlined below.
as §1, §2

For the compound `CNC(=O)c1c(-c2ccc(F)cc2)oc2cc(N(C)S(C)(=O)=O)c(-c3ccc4nc(CN5CC[C@H](OC)C5)n5c6cccc(F)c6cc5c4n3)cc12` [Example 91], the IC50 was 3.58 nM in experiment [1] and 6.54 nM in experiment [2].
In the case of `CNC(=O)c1c(-c2ccc(F)cc2)oc2cc(N(C)S(C)(=O)=O)c(-c3ccc4nc(CN5CC[C@H](O)C5)n5c6cccc(F)c6cc5c4n3)cc12` [Example 83], the values for the IC50 in experiment [1] and in experiment [2] were 1.33 nM and 1.31 nM, respectively.
For `CNC(=O)c1c(-c2ccc(F)cc2)oc2cc(N(C)S(C)(=O)=O)c(-c3ccc4nc(CN(C)CC(=O)N(C)C)n5c6cccc(F)c6cc5c4n3)cc12` [Example 115], the IC50 in experiment [1] was 2.19 nM; in experiment [2], 4.93 nM.
Consider `CNC(=O)c1c(-c2ccc(F)cc2)oc2cc(N(C)S(C)(=O)=O)c(-c3ccc4ncn5c6cccc(F)c6cc5c4n3)cc12` [Example 10, 2-(4-fluorophenyl)-5-(11-fluoropyrido[3′,2′:4,5]pyrimido[1,6-a]indol-2-yl)-N-methyl-6-(N-methylmethylsulfonamido)benzofuran-3-carboxamide], for which the IC50 in experiment [1] was 2.01 nM; in experiment [2] it was 3.24 nM.
The matching figures for `CNC(=O)c1c(C2CC2)oc2cc(N(C)S(C)(=O)=O)c(-c3ccc4ncn5c6cccc(F)c6cc5c4n3)cc12` [Example 8]: 5.71 nM and 5.82 nM.
The matching figures for `CNC(=O)c1c(-c2ccc(F)cc2)oc2cc(N(C)S(C)(=O)=O)c(-c3cc4c(cn3)nc(CN3CCC(F)(F)C3)n3c5cccc(F)c5cc43)cc12` [Example 117]: 3.49 nM and 5.01 nM.
The matching figures for `CNC(=O)c1c(-c2ccc(F)cc2F)oc2cc(N(C)S(C)(=O)=O)c(-c3ccc4nc(CN5CC(S(C)(=O)=O)C5)n5c6cccc(F)c6cc5c4n3)cc12` [Example 149]: 3.38 nM and 2.49 nM.
As to `CNC(=O)c1c(-c2ccc(F)cc2)oc2cc(N(C)S(C)(=O)=O)c(-c3ccc4nc(CN5CCC(F)(F)C5)n5c6cccc(C#N)c6cc5c4n3)cc12` [Example 122], the IC50 in experiment [1] was determined as 2.44 nM; in experiment [2], 3.46 nM.
The matching figures for `CNC(=O)c1c(-c2ccc(F)cc2)oc2cc(N(C)S(C)(=O)=O)c(-c3ccc4nc(CN5CC(C)(OC)C5)n5c6cccc(C#N)c6cc5c4n3)cc12` [Example 126]: 2.24 nM and 2.72 nM.
As for `CCn1cc(-c2oc3cc(N(C)S(C)(=O)=O)c(-c4ccc5nc(CN6CC(F)C6)n6c7cccc(F)c7cc6c5n4)cc3c2C(=O)NC)cn1` [Example 32], the IC50 was 18.6 nM in experiment [1] and 8.23 nM in experiment [2].
The matching figures for `CNC(=O)c1c(-c2ccc(F)cc2)nn2cc(N(C)S(C)(=O)=O)c(-c3ccc4ncn5c6cccc(F)c6cc5c4n3)cc12` [Example 16, 2-(4-fluorophenyl)-5-(11-fluoropyrido[3′,2′:4,5]pyrimido[1,6-a]indol-2-yl)-N-methyl-6-(N-methylmethylsulfonamido)pyrazolo[1,5-a]pyridine-3-carboxamide]: 0.954 nM and 2.22 nM.
The matching figures for `CNC(=O)c1c(-c2ccc(F)cc2)oc2nc(N(C)S(C)(=O)=O)c(-c3ccc4ncn5c6cccc(F)c6cc5c4n3)cc12` [Example 14, 2-(4-fluorophenyl)-5-(11-fluoropyrido[3′,2′:4,5]pyrimido[1,6-a]indol-2-yl)-N-methyl-6-(N-methylmethylsulfonamido)furo[2,3-b]pyridine-3-carboxamide]: 1.75 nM and 3.72 nM.
`CNC(=O)c1c(-c2ccc(F)cc2)oc2cc(N(C)S(C)(=O)=O)c(-c3cc4c(cn3)ncn3c5cccc(F)c5cc43)cc12` [Example 74, 2-(4-fluorophenyl)-5-(11-fluoropyrido[3′,4′:4,5]pyrimido[1,6-a]indol-2-yl)-N-methyl-6-(N-methylmethylsulfonamido)benzofuran-3-carboxamide]: the IC50 in experiment [1] was found to be 1.21 nM; in experiment [2] it was 3.07 nM.
